Laboratory results: BindingDB's records for doi:10.1080/14756360701404100 (Balikesir University Science & Art Faculty, 2008)

Assays:
Settings in all cases: pH 10
Carbonic anhydrase 1 [1] = molecular target: T1, Carbonic anhydrase 1 (Homo sapiens, UniProt P00915); assay: Esterase Activity Assay
Method: (§1) Carbonic anhydrase enzyme activity was assayed both with respect to its hydratase activity (i.e. hydration of CO2) and to its esterase activity (i.e. hydrolysis of an ester of p-nitrophenylacetate)

Carbonic anhydrase 2 [2] = molecular target: T2, Carbonic anhydrase 2 (Homo sapiens, UniProt P00918); assay: Esterase Activity Assay
Method: as §1

Carbonic anhydrase 1 [3] = molecular target: T1, Carbonic anhydrase 1; assay: Hydratase Activity Assay
Method: as §1

Carbonic anhydrase 2 [4] = molecular target: T2, Carbonic anhydrase 2; assay: Hydratase Activity Assay
Method: as §1

T1 sequence (P00915 whole entry): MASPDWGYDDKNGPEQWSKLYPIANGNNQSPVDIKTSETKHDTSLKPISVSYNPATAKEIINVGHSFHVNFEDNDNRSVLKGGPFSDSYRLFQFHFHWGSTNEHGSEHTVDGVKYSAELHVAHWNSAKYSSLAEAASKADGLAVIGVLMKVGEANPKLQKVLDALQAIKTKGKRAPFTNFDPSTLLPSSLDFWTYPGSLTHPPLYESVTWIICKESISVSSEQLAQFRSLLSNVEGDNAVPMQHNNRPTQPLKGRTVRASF

IC50 (Carbonic anhydrase 1 [1]) [µM]	IC50 (Carbonic anhydrase 2 [2]) [µM]	IC50 (Carbonic anhydrase 1 [3]) [µM]	IC50 (Carbonic anhydrase 2 [4]) [µM]	SMILES
160	246	124	61.7	O=c1oc2cc(O)c(O)cc2cc1-c1ccccc1 [DCP]
837	201	320	504	Cc1cccc(-c2cc3cc(O)c(O)cc3oc2=O)c1 [MPC]
153	163	206	363	Cc1ccccc1-c1cc2cc(O)c(O)cc2oc1=O [OPC]
256	127	272	561	Cc1ccc(-c2cc3cc(O)c(O)cc3oc2=O)cc1 [PPC]
